From US9757360B2, “Pharmaceutical composition comprising a ryanodine receptor antagonist for facilitating wound healing” (SZEGEDI TUDOMÁNYEGYETEM, priority 2013, dated 2017)

How the values were obtained:
[1] = system: microcirculation of the wound edges; experiment: Intravital videomicroscopy (IVM) of the microcirculation of the wound edges; assay type: in vivo, SKH-1 hairless mice; settings: 100 μM topical once a day
Experimental: (§1) The experiments were performed on male SKH-1 hairless mice of our own rearing (body weight: 36-44 g). Procedures and protocols were approved by the competent authorities (license number: V./145/2013.). Only healthy animals free of any type of injury were used, mice with any sign of disorders were discarded. Prior to the interventions the animals were anesthetized with a mixture of ketamine (Sigma) (90 mg/kg) and xylazine (Sigma) (25 mg/kg) administered intraperitoneally. A skin fold was formed in the dorsal region and was fixed with two symmetrical, fenestrated titanium plates (IROLA GmbH, Schonach, Germany) according to the description of Sorg et al. (Sorg et al., 2007).
In the midline of the dorsal region two holding stitches were placed in order to form a skin fold. This skin fold was sandwiched by two symmetrical, fenestrated titanium plates. The plates were fixed with sutures, bolts and nuts. On one side of the skin fold, a circular full-thickness wound was made by removing the tissue down to muscle layer of the other side (the diameter of the wound was 4 mm while those of used for Laser-Doppler flowmetry came to 11 mm). The wound was covered with a glass coverslip incorporated into the window of the titanium frame. The glass was removed for the duration of treatments and measurements only. In the control group (n=6), the wounds were treated with 100 μL of sterile saline once a day while in the dantrolene-treated group (n=6) 100 μL of a solution containing the sodium salt of dantrolene (100 μM) was applied to the wound once a day (the salt was dissolved in sterile saline). The observation period took 20 days (according to our previous results this is the time period needed for approximately 100% closure of wounds of 4 mm).
Intravital videomicroscopy (IVM). Microcirculation of the wound edges was monitored by means of IVM on days 4, 8 and 12. After anesthesia, 80 μL of a solution of fluorescein-isothyocyanate (FITC) labeled dextrane (2%) and also 80 μL of a solution of rhodamine-6G was administered retrobulbar. These contrast materials allow us to visualize microcirculation and leukocyte-endothelial interactions at the appropriate wavelengths. Video records of the microcirculation were evaluated off-line with Pictron IVM software. Red blood cell velocity (RBCV) was determined in the capillaries, the diameter of each vessel in the evaluated fields-of-view was measured (only diameters above 6 μm were considered) and sticking leukocytes were counted in the postcapillary venules (this parameter is relative to the area of the vessel wall and is given as cell/μm2).
Control- and dantrolene-treated groups were compared with the Mann-Whitney test and p<0.05 was considered statistically significant.

[2] = system: blood flow of the wound area; experiment: Laser-Doppler flowmetry of the wound area; assay type: in vivo, SKH-1 hairless mice; settings: day 1 after wound creation; 200 μL dantrolene solution, measured 10 minutes later; 11 mm wound
Experimental: as §1
(§2) In the midline of the dorsal region two holding stitches were placed in order to form a skin fold. This skin fold was sandwiched by two symmetrical, fenestrated titanium plates. The plates were fixed with sutures, bolts and nuts. On one side of the skin fold, a circular full-thickness wound was made by removing the tissue down to muscle layer of the other side (the diameter of the wound was 4 mm while those of used for Laser-Doppler flowmetry came to 11 mm). The wound was covered with a glass coverslip incorporated into the window of the titanium frame. The glass was removed for the duration of treatments and measurements only. […]

[3] = system: full-thickness dermal wound; experiment: Histology of excised wounds (epithelialization zone, dermal regeneration); assay type: in vivo, SKH-1 hairless mice; settings: day 4; 100 μM topical once a day
Experimental: as §1
In the midline of the dorsal region two holding stitches were placed in order to form a skin fold. This skin fold was sandwiched by two symmetrical, fenestrated titanium plates. The plates were fixed with sutures, bolts and nuts. […]
Histology. […] Zone of epithelialization was defined as the extension of epithelial regeneration measured from the wound edges and given as percentage relative to the initial diameter of the wound. Dermal regeneration was determined, too (thickness of dermal connective tissue was measured within the wound area and was given as percentage relative to that of determined in the intact skin). […]

[4] = system: full-thickness dermal wound; experiment: Macroscopic wound closure of full-thickness dermal wounds in a dorsal skin fold chamber (photo documentation); assay type: in vivo, SKH-1 hairless mice; settings: for Rate of wound closure vs control group: 100 μM topical once a day
Text: In our experiments, we have studied the effects of dantrolene on different parameters of wound healing. SKH-1 hairless male mice were used in the experiments. Full-thickness wound was made in a dorsal skin fold. The effects of dantrolene or saline (control group) on wound healing were monitored by means of photo documentation, intravital videomicroscopy (IVM) and laser Doppler flowmetry. The experimental setup was in accordance with the model described by Sorg et al. (Sorg et al., 2007). Wounds were treated daily either with dantrolene or with saline.
as §1, §2
Macroscopic wound closure. […] The images were evaluated with a software developed by our working group (DermAssess©). […]

[5] = system: epidermal barrier function; settings: cited from earlier work

With `O=C1CN(/N=C/c2ccc(-c3ccc([N+](=O)[O-])cc3)o2)C(O)=N1` [dantrolene] as the molecule, how does the “Number of sticking leukocytes in the postcapillary venules, difference vs control” value ([1]; day 12) read?
Its value is “not statistically significant”.

And the “Vessel diameters at the wound edges vs control group” value ([1]; days 4, 8 and 12 (corresponding times))?
Its value is “considerably higher”.

What about the “Red blood cell velocity (RBCV) in the capillaries vs control group” value ([1]; days 4, 8 and 12) of the same molecule?
The value was “higher”.

And the “Number of sticking leukocytes in the postcapillary venules vs control” value ([1]; days 4 and 8)?
The value was “significantly decreased”.

What about the “Blood flow in the wound area after vs before dantrolene treatment” value [2] of the same molecule?
Its value is “significant elevation”.

And the “Dermal regeneration vs control group” value [3]?
The value was “more expressed”.

And the “Extension of epithelialization zone vs control” value [3]?
The value was “more extended”.

And the “Macroscopic wound closure (decrease in wound area relative to baseline)” value ([4]; by day 20, 100 μL of 100 μM dantrolene sodium salt solution on the wound once a day, 4 mm wound)?
The value was ~100%.

What about the “Rate of wound closure vs control group” value ([4]; day 16) of the same molecule?
The value was “no difference”.

And the “Rate of wound closure vs control group” value ([4]; days 4, 8 and 12, p<0.05 vs saline control)?
The value was “significantly higher”.

What about the Barrier regeneration ([5]; local application, after removal of the uppermost layer of the epidermis) of the same molecule?
Its Barrier regeneration is “accelerates”.

And the Transepidermal water loss ([5]; mice with barrier function impaired after tape stripping of the upper epidermis)?
Its Transepidermal water loss is “ameliorate”.
